Data reported in US12091405B2, “Substituted pyrazole compounds as indoleamine 2,3-dioxygenase inhibitors” (Merck Sharp & Dohme LLC, priority 2018, dated 2024).

Biological target: IDO1 (Homo sapiens, UniProt P14902)
Experiment: IDO1 Cellular Assay in HeLa Cells Stimulated with IFNγ
Format: cell-based
Conditions: IFNγ 100 ng/mL, 300 uM L-tryptophan, about 48 hours, fluorescence readout, read-out: IDO1 HELA Cell Assay, IC50
Procedure: Biological Assays IDO1 Cellular Assay in HeLa Cells Stimulated with IFNγ
HeLa cells were cultured in complete HeLa culture medium (90% EMEM, 10% heat-inactivated fetal bovine serum) and expanded to about 1×10^9 cells. The cells were then collected and frozen down at 1×10^7 cells/vial in 1 mL frozen medium (90% complete HeLa culture medium, 10% DMSO).
Compounds to be tested were serially diluted in ten 3-fold steps in DMSO starting from 10 mM DMSO stocks in Echo low volume plate(s). Compound dilutions or DMSO alone were then dispensed from the dilution plate(s) into Greiner black 384-well assay plate(s) (catalog #781086, 50 nL/well) using an Echo 550 acoustic liquid handler (Labcyte).
Frozen HeLa cells were thawed and transferred into HeLa assay medium (99% complete HeLa culture medium, 1% Pen/Strep) with 20 mL medium/vial of cells. The cells were spun down at 250 g in a table top centrifuge for 5 min and suspended in same volume of HeLa assay medium. The cells were then counted and adjusted to a density of 2×10^5 cells/mL in HeLa assay medium. Sterile L-tryptophan were added to the cells with final concentration of 300 uM L-tryptophan. A small aliquot (2 mL/plate) of HeLa cells were set aside and were not treated with IFNγ, to serve as the Max-E control.
HeLa cells with and without IFNγ were dispensed to the respective wells of 384-well assay plates containing the compounds. The plates were incubated for about 48 hours at a 37° C., 5% CO2 incubator. Afterwards, 12 μL of 0.5 M methyl isonipecotate in dimethyl sulfoxide were added into each well and the plates were sealed and incubated at 37° C. without CO2 overnight. The plates were centrifuged for 1 min at 200×g. The resulting fluorescence was measured in a Spectramax plate reader (Molecular Devices) with a 400 nm excitation filter and a 510 nm emission filter.
The fluorescence intensity of each well was corrected for the background observed in wells with non-IFNγ-treated cells and was expressed as a fraction of the intensity observed in wells of IFNγ-treated cells and DMSO only. Potencies were calculated by linear least squares fit to the four parameter logistic IC50 equation.
Compounds disclosed herein generally have IC50 of about 0.1 nM to about 20,000 nM, or more specifically, about 1 nM to about 10,000 nM, or more specifically, about 5 nM to about 5,000 nM, or more specifically, about 10 nM to about 1,000 nM, or still more specifically, about 10 nM to about 500 nM.

IDO1, sequence (P14902 whole entry): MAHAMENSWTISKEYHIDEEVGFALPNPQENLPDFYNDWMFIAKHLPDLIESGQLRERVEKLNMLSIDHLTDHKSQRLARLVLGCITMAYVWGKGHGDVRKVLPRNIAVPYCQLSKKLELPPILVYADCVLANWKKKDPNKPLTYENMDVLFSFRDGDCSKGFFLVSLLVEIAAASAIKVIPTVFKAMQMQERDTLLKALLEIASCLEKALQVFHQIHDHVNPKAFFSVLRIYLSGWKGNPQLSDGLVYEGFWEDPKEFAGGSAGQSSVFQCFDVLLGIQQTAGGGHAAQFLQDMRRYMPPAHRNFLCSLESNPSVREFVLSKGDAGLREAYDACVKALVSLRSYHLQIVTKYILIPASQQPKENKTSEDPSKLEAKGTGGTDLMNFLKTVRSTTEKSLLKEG

In order of rising IC50:
1. Cc1cccc(C2CCN(C(=O)Cn3nc(C(=O)N4CC[C@H](O)[C@@H](F)C4)c4c3C[C@H]3C[C@@H]43)CC2)c1C [Example 23, 1-[4-(2,3-dimethylphenyl)piperidin-1-yl]-2-{(3bR,4aR)-3-[(3S,4S)-3-fluoro-4-hydroxypiperidine-1-carbonyl]-3b,4,4a,5-tetrahydro-1H-cyclopropa[3,4]cyclopenta[1,2-c]pyrazol-1-yl}ethan-1-one]  0.0011 µM
2. Cc1c(C2CCN(C(=O)Cn3nc(C(=O)N4CCN(C(=O)CO)CC4)c4c3C[C@H]3C[C@@H]43)CC2)cccc1C(F)(F)F [Example 3, 2-hydroxy-1-(4-((3bR,4aR)-1-(2-(4-(2-methyl-3-(trifluoromethyl)phenyl)piperidin-1-yl)-2-oxoethyl)-3b,4,4a,5-tetrahydro-1H-cyclopropa[3,4]cyclopenta[1,2-c]pyrazole-3-carbonyl)piperazin-1-yl)ethanone]  0.0013 µM
3. C[C@@H]1CN(C(=O)c2nn(CC(=O)N3CCC(c4cccc5c4CCC5)CC3)c3c2CCC3)C[C@H](C)O1 [Example 86, 1-[4-(2,3-dihydro-1H-inden-4-yl)piperidin-1-yl]-2-{3-[(2R,6S)-2,6-dimethylmorpholine-4-carbonyl]-5,6-dihydrocyclopenta[c]pyrazol-1(4H)-yl}ethan-1-one]  0.0073 µM
4. Cc1cc(F)cc(C2CCN(C(=O)Cn3nc(C(=O)N4C[C@@H](C)O[C@@H](C)C4)c4c3CCC4)CC2)c1 [Example 90, 2-{3-[(2R,6S)-2,6-dimethylmorpholine-4-carbonyl]-5,6-dihydrocyclopenta[c]pyrazol-1(4H)-yl}-1-[4-(3-fluoro-5-methylphenyl)piperidin-1-yl]ethan-1-one]  0.0099 µM
5. Cc1cccc(C2CCN(C(=O)Cn3nc(C(=O)N4CCOCC4)c4c3CCC4)CC2)c1C [Example 46, 1-(4-(2,3-dimethylphenyl)piperidin-1-yl)-2-(3-(morpholine-4-carbonyl)-5,6-dihydrocyclopenta[c]pyrazol-1(4H)-yl)ethan-1-one]  0.016 µM
6. COc1c(C)cc(C2CCN(C(=O)Cn3nc(C(=O)N4C[C@@H](C)O[C@@H](C)C4)c4c3CCC4)CC2)cc1C [Example 102, 2-{3-[(2R,6S)-2,6-dimethylmorpholine-4-carbonyl]-5,6-dihydrocyclopenta[c]pyrazol-1(4H)-yl}-1-[4-(4-methoxy-3,5-dimethylphenyl)piperidin-1-yl]ethan-1-one]  0.0289 µM
7. COc1c(F)cc(F)cc1C1CCN(C(=O)Cn2nc(C(=O)N3C[C@@H](C)O[C@@H](C)C3)c3c2CCC3)CC1 [Example 110, 1-[4-(3,5-difluoro-2-methoxyphenyl)piperidin-1-yl]-2-{3-[(2R,6S)-2,6-dimethylmorpholine-4-carbonyl]-5,6-dihydrocyclopenta[c]pyrazol-1(4H)-yl}ethan-1-one]  0.0393 µM
8. C[C@@H]1CN(C(=O)c2nn(CC(=O)N3CCC(c4cccc(F)c4C(F)(F)F)CC3)c3c2CCC3)C[C@H](C)O1 [Example 118, 2-{3-[(2R,6S)-2,6-dimethylmorpholine-4-carbonyl]-5,6-dihydrocyclopenta[c]pyrazol-1(4H)-yl}-1-{4-[3-fluoro-2-(trifluoromethyl)phenyl]piperidin-1-yl}ethan-1-one]  0.0498 µM
9. C[C@@H]1CN(C(=O)c2nn(CC(=O)N3CCC(c4ccc(F)cc4Cl)CC3)c3c2CCC3)C[C@H](C)O1 [Example 124, 1-[4-(2-chloro-4-fluorophenyl)piperidin-1-yl]-2-{3-[(2R,6S)-2,6-dimethylmorpholine-4-carbonyl]-5,6-dihydrocyclopenta[c]pyrazol-1(4H)-yl}ethan-1-one]  0.057 µM
10. C[C@@H]1CN(C(=O)c2nn(CC(=O)N3CCC(c4ccc(F)c(F)c4F)CC3)c3c2CCC3)C[C@H](C)O1 [Example 128, 2-{3-[(2R,6S)-2,6-dimethylmorpholine-4-carbonyl]-5,6-dihydrocyclopenta[c]pyrazol-1(4H)-yl}-1-[4-(2,3,4-trifluorophenyl)piperidin-1-yl]ethan-1-one]  0.0641 µM
11. Cc1c(C#N)cccc1C1CCN(C(=O)Cn2nc(C(=O)N3C[C@@H](C)O[C@@H](C)C3)c3c2CCC3)CC1 [Example 129, 3-[1-({3-[(2R,6S)-2,6-dimethylmorpholine-4-carbonyl]-5,6-dihydrocyclopenta[c]pyrazol-1(4H)-yl}acetyl)piperidin-4-yl]-2-methylbenzonitrile]  0.0641 µM
12. C[C@@H]1CN(C(=O)c2nn(CC(=O)N3CCC(c4ccc(F)c(C(F)F)c4)CC3)c3c2CCC3)C[C@H](C)O1 [Example 133, 1-{4-[3-(difluoromethyl)-4-fluorophenyl]piperidin-1-yl}-2-{3-[(2R,6S)-2,6-dimethylmorpholine-4-carbonyl]-5,6-dihydrocyclopenta[c]pyrazol-1(4H)-yl}ethan-1-one]  0.0817 µM
13. Cc1cc(C)c(C2CCN(C(=O)Cn3nc(C(=O)N4C[C@@H](C)O[C@@H](C)C4)c4c3CCC4)CC2)cc1C [Example 136, 2-{3-[(2R,6S)-2,6-dimethylmorpholine-4-carbonyl]-5,6-dihydrocyclopenta[c]pyrazol-1(4H)-yl}-1-[4-(2,4,5-trimethylphenyl)piperidin-1-yl]ethan-1-one]  0.085 µM
14. Cc1cccc(C2(F)CCN(C(=O)Cn3nc(C(=O)N4CCC(N)CC4)c4c3C[C@H]3C[C@@H]43)CC2)c1C [Example 13, 2-((3bR,4aR)-3-(4-aminopiperidine-1-carbonyl)-3b,4,4a,5-tetrahydro-1H-cyclopropa[3,4]cyclopenta[1,2-c]pyrazol-1-yl)-1-(4-(2,3-dimethylphenyl)-4-fluoropiperidin-1-yl)ethanone]  0.0904 µM
15. CCc1ccc(C2CCN(C(=O)Cn3nc(C(=O)N4C[C@@H](C)O[C@@H](C)C4)c4c3CCC4)CC2)cc1 [Example 146, 2-{3-[(2R,6S)-2,6-dimethylmorpholine-4-carbonyl]-5,6-dihydrocyclopenta[c]pyrazol-1(4H)-yl}-1-[4-(4-ethylphenyl)piperidin-1-yl]ethan-1-one]  0.107 µM
16. C[C@@H]1CN(C(=O)c2nn(CC(=O)N3CCC(c4ccccc4C(F)(F)F)CC3)c3c2CCC3)C[C@H](C)O1 [Example 71, 2-{3-[(2R,6S)-2,6-dimethylmorpholine-4-carbonyl]-5,6-dihydrocyclopenta[c]pyrazol-1(4H)-yl}-1-{4-[2-(trifluoromethyl)phenyl]piperidin-1-yl}ethan-1-one]  0.107 µM
17. C[C@@H]1CN(C(=O)c2nn(CC(=O)N3CCC(c4ccc(F)c(C(F)(F)F)c4)CC3)c3c2CCC3)C[C@H](C)O1 [Example 151, 2-{3-[(2R,6S)-2,6-dimethylmorpholine-4-carbonyl]-5,6-dihydrocyclopenta[c]pyrazol-1(4H)-yl}-1-{4-[4-fluoro-3-(trifluoromethyl)phenyl]piperidin-1-yl}ethan-1-one]  0.126 µM
18. C[C@@H]1CN(C(=O)c2nn(CC(=O)N3CCC(c4c(F)ccc(F)c4F)CC3)c3c2CCC3)C[C@H](C)O1 [Example 152, 2-{3-[(2R,6S)-2,6-dimethylmorpholine-4-carbonyl]-5,6-dihydrocyclopenta[c]pyrazol-1(4H)-yl}-1-[4-(2,3,6-trifluorophenyl)piperidin-1-yl]ethan-1-one]  0.126 µM
19. C[C@@H]1CN(C(=O)c2nn(CC(=O)N3CCC(c4cc(F)c(F)cc4Cl)CC3)c3c2CCC3)C[C@H](C)O1 [Example 154, 1-[4-(2-chloro-4,5-difluorophenyl)piperidin-1-yl]-2-{3-[(2R,6S)-2,6-dimethylmorpholine-4-carbonyl]-5,6-dihydrocyclopenta[c]pyrazol-1(4H)-yl}ethan-1-one]  0.142 µM
20. C[C@@H]1CN(C(=O)c2nn(CC(=O)N3CCC(c4ccccc4)C(F)(F)C3)c3c2CCC3)C[C@H](C)O1 (stereo partly drawn) [Example 72, 1-(3,3-difluoro-4-phenylpiperidin-1-yl)-2-{3-[(2R,6S)-2,6-dimethylmorpholine-4-carbonyl]-5,6-dihydrocyclopenta[c]pyrazol-1(4H)-yl}ethan-1-one]  0.144 µM
21. C[C@@H]1CN(C(=O)c2nn(CC(=O)N3CCC(c4cccc(CC(F)(F)F)c4)CC3)c3c2CCC3)C[C@H](C)O1 [Example 164, 2-{3-[(2R,6S)-2,6-dimethylmorpholine-4-carbonyl]-5,6-dihydrocyclopenta[c]pyrazol-1(4H)-yl}-1-{4-[3-(2,2,2-trifluoroethyl)phenyl]piperidin-1-yl}ethan-1-one]  0.206 µM
22. C[C@@H]1CN(C(=O)c2nn(CC(=O)N3CCC(C4CCCCC4)CC3)c3c2CCC3)C[C@H](C)O1 [Example 30, 1-(4-cyclohexylpiperidin-1-yl)-2-{3-[(2R,6S)-2,6-dimethylmorpholine-4-carbonyl]-5,6-dihydrocyclopenta[c]pyrazol-1(4H)-yl}ethan-1-one]  0.299 µM
